How the values were obtained:
Test in all cases: combination Emax (second highest fraction inhibited in the dose matrix, 72 h); higher = more inhibition; extreme values may be limits of the assay
[1] = test system: SCC-9 (Oral Cavity Carcinoma)
Outline: (§1)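 Bliss excess equals the observed combination effect minus the expected value EA + EB − EA·EB, where EA and EB are the effects of each agent alone. Combination Emax is the second-highest inhibition within the matrix. Inhibition was scaled from CellTiter-Glo 2.0 luminescence, with 0 set by vehicle wells and 1 by blank wells, after 72 hours of two-drug dosing of cells plated in 1536-well plates.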

IMR-5 (Neuroblastoma) = test system: IMR-5 (Neuroblastoma)
Outline: as §1

[2] = test system: KINGS-1 (Low Grade Glioma)
Outline: as §1

RPMI-7951 (Melanoma) = test system: RPMI-7951 (Melanoma)
Outline: as §1

NB7 (Neuroblastoma) = test system: NB7 (Neuroblastoma)
Outline: as §1

[3] = test system: NCI-H513 (Other Solid Carcinomas)
Outline: as §1

[4] = test system: KYSE-150 (Esophageal Squamous Cell Carcinoma)
Outline: as §1

[5] = test system: KLE (Endometrial Carcinoma)
Outline: as §1

GI-1 (Glioblastoma) = test system: GI-1 (Glioblastoma)
Outline: as §1

BT-20 (Breast Carcinoma) = test system: BT-20 (Breast Carcinoma)
Outline: as §1

NH-12 (Neuroblastoma) = test system: NH-12 (Neuroblastoma)
Outline: as §1

[6] = test system: HuP-T3 (Pancreatic Carcinoma)
Outline: as §1

[7] = test system: LC4-1 (B-Lymphoblastic Leukemia)
Outline: as §1

[8] = test system: NCI-H1573 (Lung Adenocarcinoma)
Outline: as §1

EW-18 (Ewing's Sarcoma) = test system: EW-18 (Ewing's Sarcoma)
Outline: as §1

[9] = test system: OVISE (Ovarian Carcinoma)
Outline: as §1

SMILES: CCc1c2c(nc3ccc(O)cc13)-c1cc3c(c(=O)n1C2)COC(=O)[C@]3(O)CC [SN-38] + O=C(c1cc(Cc2n[nH]c(=O)c3ccccc23)ccc1F)N1CCN(C(=O)C2CC2)CC1 [Olaparib] (first compound max 0.3 µM, 7x7, partner max 10 µM)
- combination Emax [1]: 0.365
- combination Emax (IMR-5 (Neuroblastoma)): 1
- combination Emax [2]: 0.287
- combination Emax (RPMI-7951 (Melanoma)): 0.948
- combination Emax (NB7 (Neuroblastoma)): 0.967
- combination Emax [3]: 0.615
- combination Emax [4]: 0.728
- combination Emax [5]: 0.453
- combination Emax (GI-1 (Glioblastoma)): 0.954
- combination Emax (BT-20 (Breast Carcinoma)): 0.855
- combination Emax (NH-12 (Neuroblastoma)): 0.903
- combination Emax [6]: 0.683
- combination Emax [7]: 0.948
- combination Emax [8]: 0.187
- combination Emax (EW-18 (Ewing's Sarcoma)): 0.773
- combination Emax [9]: 0.293
